Results taken from patent US20250222068A1, “COMPOSITION FOR PREVENTING OR TREATING LUPUS COMPRISING RECOMBINANT STABILIZED GALECTIN-9 PROTEIN” (GBIOLOGICS INC., priority 2022, published 2025).

Test: Body weight assessment in an in vivo model of systemic lupus erythematosus
Settings: mycophenolate 60 mg/kg PO once daily, 9 weeks, MRL/FAS^lpr mice, FIG. 1

## COc1c(C)c2c(c(O)c1C/C=C(\C)CCC(=O)O)C(=O)OC2 [Mycophenolate, mycophenolate]
  changes in body weight: no statistically significant changes in body weight
